Values quoted from earlier work in US5942547A, “2-Deoxystreptamine derivatives, pharmaceutical compositions thereof and therapeutic methods using same” (priority 1996, dated 1999).

Tested on: REV/RRE interaction

**Q.** For NC[C@@H]1O[C@H](O[C@H]2[C@@H](O)[C@H](O[C@@H]3[C@@H](O)[C@H](N)C[C@H](N)[C@H]3O[C@H]3O[C@H](CN)[C@@H](O)[C@H](O)[C@H]3N)O[C@@H]2CO)[C@H](N)[C@@H](O)[C@@H]1O [neomycin B], which “disruption of the REV/RRE interaction (in words)” value is on record?
**A.** The value was “could disrupt the REV/RRE interaction”.
